Reference: article PMC10458458, “Characterization of Anticancer Effects of the Analogs of DJ4, a Novel Selective Inhibitor of ROCK and MRCK Kinases” (Pharmaceuticals, 2023)

Tested on: MDA-MB-231 breast cancer cells
Experiment: Caspase 3/7 assay (Muse)
Assay type: cell-based, human
Settings: MDA-MB-231, 2.5 µM, 48 h (DMSO 6.2)
Description: Figure 8 DJ4 analogs induce cell cycle arrest and apoptotic cell death in MDA-MB-231 breast cancer cells. (A) DJ4 analogs induce cell cycle arrest in MDA-MB-231 breast cancer cells. To study the cell cycle arrest by DJ4 analogs, serum-starved cell cycle-synchronized MDA-MB-231 cells were treated with 2.5 µM concentration of each compound for 24 h and stained with propidium iodide. Treatment with all the analogs, except DJ-Morpholine, induced significant arrest of cells in G2/M phase of cell cycle. (B) Apoptotic cell death by DJ4 analogs was evaluated by measuring caspase 3/7 activation in breast cancer cells. Cells were treated with 2.5 µM concentration of each compound for 48 h and incubated with fluorescent dye. All the compounds except DJ-Morpholine induced significant apoptotic cell death. TEXT PRINTED IN THE PICTURE: (A) DMSO: G1 : 48.40%; S : 44%; G2/M: 7.60% | (A) DJ4: G1 : 27.41%; S : 38.58%; G2/M: 34.01% | (A) DJ-Allyl: G1 : 15.94%; S : 55.51%; G2/M: 28.54% | (A) DJE4: G1 : 19.14%; S : 58.48%; G2/M: 22.37% | (A) DJ110: G1 : 19.16%; S : 38.39%; G2/M: 42.51% | (A) DJ-Morpholine: G1 : 43.16%; S : 51.10%; G2/M: 5.74% | (B) DMSO: Dead 3.10 %; Apoptotic/Dead 4.40 %; 6.2; 1.75 % Apoptotic | (B) DJ4: Dead 5.45 %; Apoptotic/Dead 36.80 %; 52.9; 41.65 % Live; 16.10 % Apoptotic | (B) DJ-Allyl: Dead 3.05 %; Apoptotic/Dead 9.90 %; 18.1; 78.90 % Live; 8.15 % Apoptotic | (B) DJE4: Dead 1.85 %; Apoptotic/Dead 8.15 %; 13.4; 84.75 % Live; 5.25 % Apoptotic | (B) DJ110: Dead 9.05 %; Apoptotic/Dead 56.60 %; 64.4; 26.60 % Live; 7.75 % Apoptotic | (B) DJ-Morpholine: Dead 1.90 %; Apoptotic/Dead 5.00 %; 8.0; 90.10 % Live; 3.00 % Apoptotic DOUBTS OF THE COPYIST ABOUT THIS PICTURE: Panel A: the print is very small and blurred, so 3, 5, 6, 8 and 9 cannot be told apart with certainty in any of its values / A, DMSO: G1 48.40% or 46.40%; S 44% (a decimal part may be hidden); G2/M 7.60% or 7.80% / A, DJ4: G1 27.41%; S 38.58% or 38.98%; G2/M 34.01% uncertain / A, DJ-Allyl: G1 15.94%; S 55.51% or 53.51%; G2/M 28.54% or 26.54% uncertain / A, DJE4: G1 19.14%; S 58.48% or 58.46%; G2/M 22.37% uncertain / A, DJ110: G1 19.16% or 19.18%; S 38.39% or 38.33%; G2/M 42.51% uncertain / A, DJ-Morpholine: G1 43.16%; S 51.10%; G2/M 5.74% uncertain / B, DMSO, Live: the value is hidden by data points (only '.75 %' can be read, perhaps 90.75 or 89.75), so it is left out / B, DJ4, Live: partly hidden by data points, 41.65 is the best reading / B, DJ-Allyl, Live: partly hidden by data points, 78.90 or 76.90 / B, DJE4, Live: partly hidden by data points, 84.75 or 64.75 / B, DJ110, Live: partly hidden by data points, 26.60 or 28.60 / B, DJ-Morpholine, Live: partly hidden by data points, 90.10 or 20.10 / B: the large bold numbers (6.2, 52.9, 18.1, 13.4, 64.4, 8.0) are printed with no measure or unit
To determine whether the active analogs induce apoptotic cell death similar to the DJ4 parent compound, we treated MDA-MB-231 breast cancer cells with 2.5 µM concentration of all the analogs for 48 h (Figure 8). The cells were then analyzed for activation of caspase 3/7 (a marker for apoptotic cell death) and propidium iodide (a marker of cell membrane integrity) using the Muse^TM (EMD Millipore) two color bench-top flow cytometer. […]
To examine whether the selected compounds induce apoptosis, we treated MDA-MB-231 breast cancer cells with 5 µM of each compound. […] The data were quantified by using FlowJo software (version 10).

C=CC/N=C1\NC(=O)/C(=C\c2c[nH]c3ncccc23)S1 [DJ-Allyl]
apoptosis (Q2 + Q3), caspase 3/7: 18.1%

O=C1N/C(=N\CCc2ccccc2)S/C1=C/c1c[nH]c2ncccc12 [DJ4]
apoptosis (Q2 + Q3), caspase 3/7: 52.9%

O=C1N/C(=N\Cc2ccccc2)S/C1=C/c1c[nH]c2ncccc12 [DJ110]
apoptosis (Q2 + Q3), caspase 3/7: 64.4%

O=C1N/C(=N\CCN2CCOCC2)S/C1=C/c1c[nH]c2ncccc12 [DJ-Morpholine]
apoptosis (Q2 + Q3), caspase 3/7: 8%

CC/N=C1\NC(=O)/C(=C\c2c[nH]c3ncccc23)S1 [DJE4]
apoptosis (Q2 + Q3), caspase 3/7: 13.4%
